{"source": "patent US20240091319A1", "about": "“DUAL-ADMINISTRATION METHODS FOR TREATING RESPIRATORY DISTRESS” (THE TRUSTEES OF THE STEVENS INSTITUTE OF TECHNOLOGY, priority 2021, published 2024)", "key": {"[1]": {"tested_on": "alveolar-capillary barrier of heterogeneously flooded regions, isolated adult rat lung", "assay": "Ventilation 'injury score' in the isolated adult rat lung (Method 2)", "conditions": "flooding solution in normal saline with 5% albumin; solutes at about the concentrations present in 1% SURVANTA; FIG. 2A", "excerpt": "Solutes are at about the same concentrations as present in 1% […]® solution. The surfactant protein B (SP-B) and SP-C used are isolated from pulmonary alveolar proteinosis patients; the SP-C, thus, is likely a mixture of fully-, partially- and non-palmitoylated peptide. Two forms of synthetic SP-C are used. One is sSP-Cff-leuc. […] Due to pre-dissolution of certain solutes, at high concentration, in non-aqueous solvents, the final dipalmitoylphosphatidylcholine (DPPC) solution contains 2% methanol; the final SP-B and SP-C solutions contain 1.6% chloroform and 0.8% methanol; and the final sSP-Cff-leuc solution contains 1.3% chloroform and 1.3% ethanol.\nBase solution for all groups is normal saline.\nMethod 2. Ventilation ‘injury score’ in the isolated adult rat lung. An isolated adult rat lung is perfused with a physiologic solution (i.e. the solution is pumped through the lung vessels, including the capillaries) containing a low concentration of a fluorescent dye verified not to alter surface tension. A surface alveolus of the lung is micropunctured and a non-fluorescent test solution is injected. In experimental regions, a sufficiently large volume of liquid is injected to generate a pattern of heterogeneous alveolar flooding; in control regions, a sufficiently small volume of liquid is injected so that the liquid spontaneously clears from the region, leaving behind a micropunctured-but-aerated region. The region is imaged by confocal microscopy over a five minute baseline period at a constant transpulmonary pressure of 5 cm H2O. Five ventilation cycles are supplied to the lung at 0.33 Hz with the equivalent of a positive end-expiratory pressure of 15 cm H2O and with a tidal volume of 6 ml/kg body weight. The lung is then returned to a constant transpulmonary pressure of 5 cm H2O and imaged for 10 additional minutes. Alveolar liquid fluorescence at all time points is normalized by capillary fluorescence.\nAt baseline, alveolar liquid fluorescence (in flooded alveoli of experimental regions or in the liquid lining layer of control, aerated regions) is low and constant in all regions. Following ventilation, alveolar liquid fluorescence remains unchanged in aerated regions but continually increases with time in heterogeneously flooded regions. […] The increase above baseline in normalized alveolar liquid fluorescence at the last time point of the experiment is used as an injury score. The injury score, which indicates the rate of increase of normalized fluorescence following ventilation, correlates with the surface tension of the test solution."}, "[2]": {"tested_on": "alveoli of isolated rat lungs", "assay": "Surface tension determination in the isolated adult rat lung (Method 1), solutions injected into alveoli in situ", "conditions": "for surface tension (T): alveolar administration", "method": "Method 1. Surface tension determination in the isolated adult rat lung. In an isolated (excised) adult rat lung, the alveolar liquid is labeled with a fluorescent dye verified not to alter surface tension. T is determined as follows at a curved region of the alveolar air-liquid interface (e.g., the meniscus in a flooded alveolus or the corner of an aerated alveolus). Alveolar air pressure is determined with a transducer at the trachea of the constantly-inflated lung. Alveolar liquid phase pressure is determined by servo-nulling pressure measurement. The three-dimensional interfacial radius of curvature is determined by confocal microscopy. The surface tension is calculated according to the Laplace relation.\nAlveoli of isolated rat lungs were injected (or flooded) in situ with various solutions or components and the effects on alveolar surface tension were compared. The accompanying FIG. 1 includes a composite bar chart comparing T values resulting from treatment with various solutions or components. Details, including the compositions and concentrations of any administered solutions or components, are shown below the x-axis of the chart. In more detail, the rat lungs were micropunctured, optionally flooded with red blood cell (RBC) homogenate alone, with albumin, or with albumin and SRB. […] Half of these samples receiving the second injection were additionally subjected to 50 ventilation cycles at the noted pressures. Additional experimental details are described in the Methods section of Nguyen, T L and Perlman, C E, “Sulforhodamine B and exogenous surfactant effects on alveolar surface tension under acute respiratory distress syndrome conditions,” J. Appl. Physiol. 2020, 129(6), 1505-1513, the entire content of which is incorporated herein by reference.\nWith reference to the accompanying FIG. 1 and its chart, the first data point (bar) corresponds to normal, aerated alveoli in normal lungs, as a control. The red blood cell homogenate was added to the remaining data points to simulate epithelial damage and hemorrhaging of the alveolar capillaries, as may be present in some cases of ARDS."}, "[3]": {"tested_on": "rats with model lung injury", "assay": "Therapeutic IV SRB administration in vivo in rats with model lung injury (injurious ventilation, then 4-hr support)", "conditions": "rat, target plasma concentration 10 nM", "method": "The therapeutic efficiencies of clinical method analogues, including tracheal instillation, intravascular (IV) administration, etc. of various surface tension-lowering components can be tested in an animal following generation of model lung injury in the animal. For example, therapeutic IV SRB administration was tested in vivo in rats with model lung injury, as follows. All animals were handled in accord with a protocol approved by the Stevens Institute of Technology Institutional Animal Care and Use Committee. First, the model lung injury was generated by ventilating an anesthetized rat with an excessive tidal (breath) volume (VT) of 42 ml/kg body weight and an end-expiratory pressure of zero for 15 min to physically injure the lungs. Then, modeling clinical treatment of a patient with lung injury, VT was reduced to a protective level of 6 ml/kg, end-expiratory pressure was increased to a positive, protective level of 2 or 10 cm H2O, and the rat continued to be supported by mechanical ventilation for 4 hrs. SRB was administered IV, targeting a plasma concentration of 10 nM, after the injury period and at the start of the support period, mimicking therapeutic administration after the development of respiratory distress but prior to supportive treatment by mechanical ventilation. Oxygenation was tracked during the 4-hr support period. At the end of the support period, the rat was sacrificed, the lungs were isolated, and alveolar T was determined in situ in the isolated lungs using Method 1, above. In lungs from rats sacrificed at the end of the 4-hr support period, T was determined in one aerated alveolus and one flooded alveolus."}, "[4]": {"tested_on": "alveoli of isolated rat lungs", "conditions": "injected into alveoli of isolated lungs in situ; SRB 1 nM-1,000 nM with albumin 3-12 w/v % in alveolar liquid; cited from earlier work"}, "[5]": {"tested_on": "alveolar-capillary barrier of heterogeneously flooded regions, isolated adult rat lung", "conditions": "injected into alveoli of isolated lungs in situ; SRB 1 nM-1,000 nM with albumin 3-12 w/v % in alveolar liquid; cited from earlier work"}, "lungs": {"tested_on": "lungs", "conditions": "administered to the lungs; U.S. Pat. Nos. 9,504,796 and 9,693,990; cited from earlier work"}, "[6]": {"conditions": "low concentrations, in the presence of albumin; reported in an earlier patent publication; cited from earlier work"}, "immature fetal rat lung": {"tested_on": "immature fetal rat lung", "assay": "Opening pressure of the immature fetal rat lung after tracheal instillation (Method 3)", "conditions": "4-5 μl instilled in trachea, embryonic day 18 or 19; with 5% albumin; 1% SURVANTA, 0.0005% SP-C; FIG. 3", "method": "Solution (4-5 μl), with solutes as specified, is instilled in the trachea of the fluid-filled immature (embryonic day 18 or 19) fetal rat lung. The pressure required to inflate the fetal rat lung for the first time is proportional to surface tension. […] The sSP-Cff-ion lock used is not biotinylated and is dissolved directly in normal saline without additional solvents. n=1 or 2/group.\nMethod 3. Opening pressure of the immature fetal rat lung. To inflate the initially liquid-filled fetal lung for the first time, the pressure applied at the trachea must be sufficient to overcome a capillary force that is proportional to the surface tension of the liquid in the lung. Thus, following instillation of a test solution in the trachea of the immature fetal rat lung, the opening pressure of the lung is indicative of the surface tension of the test solution. At embryonic day 18 or 19 (term=day 22), a fetus is delivered from a pregnant rat by uterotomy. […] The opening pressure that causes air to flow into the lungs is recorded, and is proportional to the solution surface tension."}, "adult rat lung": {"tested_on": "adult rat lung", "assay": "Facilitation of dilute […] by negatively charged solutes in the adult rat lung", "conditions": "solute at 5 w/v %", "method": "Method 1. […] Alveolar air pressure is determined with a transducer at the trachea of the constantly-inflated lung. Alveolar liquid phase pressure is determined by servo-nulling pressure measurement."}}, "note": "Where no end group is shown, it is not given here. The star is where a group is joined. Biotin = O=C1N[C@H]2[C@H](CS[C@H]2CCCCC(=O)*)N1"}
{"molecule": "CCCCCCCCCCCCCCCC(=O)OC[C@H](COP(=O)([O-])OCC[N+](C)(C)C)OC(=O)CCCCCCCCCCCCCCC", "note": "[DPPC, dipalmitoylphosphatidylcholine, reference compound]", "values": [{"measurement": "injury score (thus surface tension)", "setting": "[1]", "value": "not those containing DPPC or SP-B"}]}
{"molecule": "CCN(CC)c1ccc2c(-c3ccc(S(=O)(=O)O)cc3S(=O)(=O)[O-])c3ccc(=[N+](CC)CC)cc-3oc2c1", "note": "[SRB, sulforhodamine B]", "values": [{"measurement": "speed of T lowering compared with exogenous surfactant", "setting": "[2]; RBC homogenate plus albumin, FIG. 1", "value": "acts faster than exogenous surfactant"}, {"measurement": "surface tension (T)", "setting": "[2]; T increased by cell debris", "value": "reduce T"}, {"measurement": "surface tension (T)", "setting": "[2]; T increased by secretory phospholipase A2 (sPLA2)", "value": "reduce T"}, {"measurement": "alveolar surface tension (T)", "setting": "[2]; alveoli flooded with RBC homogenate, albumin and SRB included, FIG. 1 bars 4, 7, 8", "value": "immediately decreased/normalized"}, {"measurement": "plasma markers of lung injury and inflammation", "setting": "[3]", "value": "reduce plasma markers of lung injury and inflammation"}, {"measurement": "ventilation-induced lung injury (VILI)", "setting": "[3]", "value": "reduce VILI"}, {"measurement": "alveolar surface tension (T), determined in isolated lungs after sacrifice", "setting": "[3]; after injury period, end of 4-hr support period", "value": "reduce surface tension specifically in flooded/injured alveoli"}, {"measurement": "oxygenation", "setting": "[3]; tracked during 4-hr support period", "value": "improve oxygenation"}, {"measurement": "surface tension", "setting": "[4]", "value": "lower surface tension"}, {"measurement": "ventilation injury of flooded alveoli", "setting": "[5]", "value": "protect against ventilation injury of flooded alveoli"}, {"measurement": "redistribution of edema liquid among alveoli", "setting": "lungs", "value": "promoting equitable redistribution of edema liquid among alveoli"}, {"measurement": "surface tension", "setting": "lungs", "value": "capable of lowering surface tension"}]}
{"molecule": "GIPFFPVHLKRLKLLLLLLLLILLLILGALLMGL (SEQ ID NO:2) (sSP-Cff-leuc)", "values": [{"measurement": "injury score (thus surface tension)", "setting": "[1]", "value": "lower injury score"}, {"measurement": "surface tension in the lungs", "setting": "[6]", "value": "can lower surface tension in the lungs"}]}
{"molecule": "GIPFFPVHLKRLLIVVVVVELIVKVIVGALLMGL (SEQ ID NO:3) (sSP-Cff-ion lock)", "values": [{"measurement": "opening pressure (proportional to surface tension), compared with 100% SURVANTA without albumin", "setting": "immature fetal rat lung", "value": "at least as effective as 100% SURVANTA in the absence of albumin"}, {"measurement": "surface tension in the lungs", "setting": "[6]", "value": "can lower surface tension in the lungs"}]}
{"molecule": "fibrinogen", "values": [{"measurement": "facilitation of the surface activity of 1 vol % SURVANTA", "setting": "adult rat lung", "value": "also facilitate 1 vol % SURVANTA®"}]}
{"molecule": "rhodamine WT", "values": [{"measurement": "redistribution of edema liquid among alveoli", "setting": "lungs", "value": "promoting equitable redistribution of edema liquid among alveoli"}, {"measurement": "surface tension", "setting": "lungs", "value": "capable of lowering surface tension"}]}
{"molecule": "sSP-Cff-ion lock-B: variant of sSP-Cff-ion lock with a biotinylated N-terminal (Biotin-GIPFFPVHLKRLLIVVVVVELIVKVIVGALLMGL)", "values": [{"measurement": "injury score (thus surface tension)", "setting": "[1]", "value": "lower injury score"}, {"measurement": "surface tension in the lungs", "setting": "[6]", "value": "can lower surface tension in the lungs"}]}
{"molecule": "SP-B: surfactant protein B isolated from pulmonary alveolar proteinosis patients (protein, UniProt P07988 201-279, looked up, Pulmonary surfactant-associated protein B, surfactant protein B isolated from pulmonary alveolar proteinosis patients) Pulmonary …: FPIPLPYCWLCRALIKRIQAMIPKGALAVAVAQVCRVVPLVAGGICQCLAERYSVILLDTLLGRMLPQLVCRLVLRCSM", "values": [{"measurement": "injury score (thus surface tension)", "setting": "[1]", "value": "not those containing DPPC or SP-B"}]}
